Laboratory results reported in patent publication US20200017496A1 (priority 2017, published 2020).
Where two headings read alike, the source gives them in different places.

How the values were obtained:
[1] = system: Escherichia coli (ECO) isolates; assay: MIC of compounds alone and combined with antibacterials, broth microdilution (CLSI); assay type: cell-based; conditions: for MIC: Escherichia coli
Procedure, shortened: (§1)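 Inoculum 5·10^5 CFU/mL (final), log phase, ca-MHB; 16-20 h, 35° C, ambient air. MIC = lowest conc. with no visible growth; ATB MIC read at each compound level.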

[2] = system: Enterobacter cloacae (ECL) isolates; assay: as above; assay type: cell-based; conditions: for MIC: Enterobacter cloacae
Procedure, shortened: as §1

CC1(C)S[C@@H]2[C@H](NC(=O)[C@H](N)c3ccc(O)cc3)C(=O)N2[C@H]1C(=O)O [AMX, Amoxicillin]
128 µg/mL: MIC ATB in combination [1] | MIC ATB in combination [2]
256 µg/mL: MIC ATB in combination ([1]; ECO 5302, AF1 @ 4 μg/mL) | MIC ATB in combination ([1]; ECO RGN238, AF1 @ 4 μg/mL) | MIC ATB in combination ([1]; ECO UFR185, AF1 @ 4 μg/mL) | MIC ATB in combination ([1]; ECO UFR208, AF1 @ 4 μg/mL) | MIC ATB in combination ([2]; ECL 200138, AF1 @ 4 μg/mL) | MIC ATB in combination ([2]; ECL 260033, AF1 @ 4 μg/mL) | MIC ATB in combination ([2]; ECL 260253, AF1 @ 4 μg/mL) | MIC ATB in combination ([2]; ECL 260323, AF1 @ 4 μg/mL) | MIC ATB in combination ([2]; ECL UFR13, AF1 @ 4 μg/mL) | MIC ATB in combination ([2]; ECL UFR85, AF1 @ 4 μg/mL) | MIC ATB in combination ([2]; ECL UFR194, AF1 @ 4 μg/mL) | MIC ATB in combination ([2]; ECL UFR200, AF1 @ 4 μg/mL)
4 µg/mL: MIC ATB in combination ([1]; ECO UFR189, AF1 @ 4 μg/mL) | MIC ATB in combination ([1]; ECO UFR209, AF1 @ 4 μg/mL) | MIC ([1]; strain ECO 260096 (CTX-M-132), CLA @ 4 μg/ml+ ATB) | MIC ([1]; strain ECO 260304 (CTX-M-15), CLA @ 4 μg/ml+ ATB)
> 128 µg/mL: MIC ([2]; ATB alone, strain ECL UFR197 (TEM-1, CTX-M-15, OXA-1, OXA-48)) | MIC ([2]; ATB alone, strain ECL UFR198 (TEM-1, SHV-12, CTX-M-15, DHA-1, OXA-1, OXA-48)) | MIC ([2]; ATB combined with CLA @ 4 μg/ml, strain ECL UFR197 (TEM-1, CTX-M-15, OXA-1, OXA-48)) | MIC ([2]; ATB combined with CLA @ 4 μg/ml, strain ECL UFR198 (TEM-1, SHV-12, CTX-M-15, DHA-1, OXA-1, OXA-48)) | MIC ([2]; strain ECL 2185D (OXA-163), CLA @ 4 μg/ml+ ATB)
32 µg/mL: MIC ATB in combination ([1]; ECO UFR174, AF1 @ 4 μg/mL) | MIC ATB in combination ([1]; ECO UFR175, AF1 @ 4 μg/mL) | MIC ATB in combination ([1]; ECO UFR176, AF1 @ 4 μg/mL) | MIC ATB in combination ([1]; ECO UFR184, AF1 @ 4 μg/mL) | MIC ATB in combination ([1]; ECO UFR207, AF1 @ 4 μg/mL) | MIC ([1]; strain ECO UFR207 (CTX-M-15), CLA @ 4 μg/ml+ ATB) | MIC ([1]; strain ECO UFR209 (TEM-1, CTX-M-15), CLA @ 4 μg/ml+ ATB) | MIC ([1]; strain ECO UFR218 (TEM-1, SHV-1, CTX-M-15), CLA @ 4 μg/ml+ ATB)
64 µg/mL: MIC ATB in combination ([1]; ECO 190317, AF1 @ 4 μg/mL) | MIC ATB in combination ([1]; ECO 190457, AF1 @ 4 μg/mL) | MIC ATB in combination ([1]; ECO 260508, AF1 @ 4 μg/mL) | MIC ATB in combination ([1]; ECO UFR18, AF1 @ 4 μg/mL) | MIC ATB in combination ([1]; ECO UFR19, AF1 @ 4 μg/mL) | MIC ATB in combination ([1]; ECO UFR61O, AF1 @ 4 μg/mL) | MIC ATB in combination ([1]; ECO UFR212, AF1 @ 4 μg/mL) | MIC ([1]; strain ECO 190317 (TEM-1, SHV-12, CTX-M-15, OXA-1), CLA @ 4 μg/ml+ ATB) | MIC ([1]; strain ECO 260508 (TEM-1, CTX-M-15, OXA-1), CLA @ 4 μg/ml+ ATB) | MIC ATB in combination ([2]; ECL UFR70, AF1 @ 4 μg/mL)
> 1020 µg/mL: MIC ([1]; strain ECO 131119 (TEM-1, OXA-48), ATB alone) | MIC ([1]; strain ECO 190317 (TEM-1, SHV-12, CTX-M-15, OXA-1), ATB alone) | MIC ([1]; strain ECO RGN238 (OXA-1), ATB alone)
<=1 μg/mL: MIC ATB in combination ([1]; ECO 180070, AF1 @ 4 μg/mL) | MIC ATB in combination ([1]; ECO 190314, AF1 @ 4 μg/mL) | MIC ATB in combination ([1]; ECO 190549, AF1 @ 4 μg/mL) | MIC ATB in combination ([1]; ECO 200159, AF1 @ 4 μg/mL) | MIC ATB in combination ([1]; ECO 200259, AF1 @ 4 μg/mL) | MIC ATB in combination ([1]; ECO 200344, AF1 @ 4 μg/mL) | MIC ATB in combination ([1]; ECO 260096, AF1 @ 4 μg/mL) | MIC ATB in combination ([1]; ECO 260304, AF1 @ 4 μg/mL) | MIC ATB in combination ([1]; ECO UFR210, AF1 @ 4 μg/mL) | MIC ATB in combination ([1]; ECO UFR211, AF1 @ 4 μg/mL)
2 µg/mL: MIC ATB in combination ([1]; ECO UFR86, AF1 @ 4 μg/mL)
> 256 µg/mL: MIC ([2]; strain ECL 2185D (OXA-163), ATB alone) | MIC ([2]; strain ECL 190310 (AmpC), ATB alone)
> 512 µg/mL: MIC ([1]; strain ECO 131119 (TEM-1, OXA-48), CLA @ 4 μg/ml+ ATB)
8 µg/mL: MIC ATB in combination ([1]; ECO UFR190, AF1 @ 4 μg/mL) | MIC ATB in combination ([1]; ECO UFR191, AF1 @ 4 μg/mL) | MIC ATB in combination ([1]; ECO UFR218, AF1 @ 4 μg/mL) | MIC ([1]; strain ECO 190314 (CTX-M-1), CLA @ 4 μg/ml+ ATB) | MIC ([1]; strain ECO 190549 (CTX-M-1), CLA @ 4 μg/ml+ ATB) | MIC ([1]; strain ECO 200159 (TEM-1, CTX-M-14), CLA @ 4 μg/ml+ ATB) | MIC ([1]; strain ECO 200259 (CTX-M-14), CLA @ 4 μg/ml+ ATB) | MIC ([1]; strain ECO UFR210 (SHV-12), CLA @ 4 μg/ml+ ATB) | MIC ([1]; strain ECO UFR211 (TEM-24), CLA @ 4 μg/ml+ ATB) | MIC ATB in combination ([2]; ECL 190408, AF1 @ 4 μg/mL)
16 µg/mL: MIC ATB in combination ([1]; ECO 131119, AF1 @ 4 μg/mL) | MIC ATB in combination ([1]; ECO UFR15, AF1 @ 4 μg/mL) | MIC ATB in combination ([1]; ECO UFR62, AF1 @ 4 μg/mL) | MIC ATB in combination ([1]; ECO UFR186, AF1 @ 4 μg/mL) | MIC ATB in combination ([1]; ECO UFR187, AF1 @ 4 μg/mL) | MIC ([1]; strain ECO 180070 (TEM-1, CTX-M-15), CLA @ 4 μg/ml+ ATB) | MIC ([1]; strain ECO 200344 (CTX-M-1), CLA @ 4 μg/ml+ ATB)
